Measured values: patent US7622480B2, “Azaindolylpiperidine derivatives as antihistaminic and antiallergic agents” (Laboratorios Almirall S.A., priority 2002, dated 2009)

Key:
[1] = tested on: Histamine-induced skin vascular permeability in rats; test: Histamine-induced skin vascular permeability in rats; type: in vivo; conditions: Rattus norvegicus, 4 h; Male Wistar rats, oral, dose of 3 mg/Kg, four hours after administration, compared with vehicle treated group
Description: Either one, four, eight or 24 hours later the rats were lightly anaesthetized with ether and a cutaneous reaction was induced by two intradermal injections of 50 μl of histamine (100 μg/ml) onto the back, followed by a intravenous injection of 3 ml/kg of Evan's Blue (5 mg/ml), both dissolved in saline. Sixty minutes later, the rats were killed by cervical dislocation and the back skin dissected free. The diameter (in millimetres) of the papule was measured in two directions and the area was calculated.

histamine H1 receptor = molecular target: T1, histamine H1 receptor (Cavia porcellus, UniProt P31389); test: Histamine-H1 receptor binding assay; conditions: guinea pig cerebellum membranes, 0.7 nM [3H]-mepyramine, 30 min at 30° C.
T1 construct: performed in guinea pig cerebellum membranes as described previously; from tissue; host or cells: guinea pig cerebellum membranes
Description: (1) In vitro histamine H1 receptor binding assay, to measure the affinity of the compounds. […] Briefly, the membrane suspensions (160 μg/ml) were incubated at 30° C. with 0.7 nM [^3H]-mepyramine and different concentrations of the test compounds in a final volume of 250 μl. Binding reactions were terminated by filtration after 30 min of incubation and the bound radioactivity was determined. The non-specific binding was measured in the presence of 10 μM of promethazine. The affinity of each test compound to the receptor was determined by using at least six different concentrations run in duplicate. IC50 values were obtained by non-linear regression by use of SAS on a DEC AXP computer.

T1 sequence (P31389 whole entry): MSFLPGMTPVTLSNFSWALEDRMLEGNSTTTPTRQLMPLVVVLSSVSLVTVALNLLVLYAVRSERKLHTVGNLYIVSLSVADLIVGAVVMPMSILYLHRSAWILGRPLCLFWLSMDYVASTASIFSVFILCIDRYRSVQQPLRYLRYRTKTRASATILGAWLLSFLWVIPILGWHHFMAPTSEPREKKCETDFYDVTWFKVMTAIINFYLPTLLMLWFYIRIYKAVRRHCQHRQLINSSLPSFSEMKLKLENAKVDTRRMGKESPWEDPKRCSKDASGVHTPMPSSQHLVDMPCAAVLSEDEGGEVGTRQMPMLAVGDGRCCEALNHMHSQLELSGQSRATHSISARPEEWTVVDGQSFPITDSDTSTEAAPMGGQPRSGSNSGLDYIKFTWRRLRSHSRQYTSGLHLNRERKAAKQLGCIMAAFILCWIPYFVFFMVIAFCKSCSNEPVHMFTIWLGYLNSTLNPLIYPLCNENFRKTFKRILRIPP

| Structure (SMILES) | IC50 (histamine H1 receptor) [nM] | inhibition in vivo at 3 mg/kg [1] [%] |
| --- | --- | --- |
| COCCn1cc(C2CCN(Cc3cccc(C(=O)O)c3)CC2)c2cccnc21 [Example 1, 3-{4-[1-(2-methoxyethyl)-1H-pyrrolo[2,3-b]pyridin-3-yl]piperidin-1-ylmethyl}benzoic acid] | 240 | > 50 |
| CCOCCn1cc(C2CCN(Cc3cccc(C(=O)O)c3)CC2)c2cccnc21 [Example 4, 3-{4-[1-(2-ethoxyethyl)-1H-pyrrolo[2,3-b]pyridin-3-yl]piperidin-1-ylmethyl}benzoic acid] | 403 | > 50 |
| CCOCCn1cc(C2CCN(Cc3ccc(OC)c(C(=O)O)c3)CC2)c2cccnc21 [Example 5] | 695 | > 50 |
| CCOCCn1cc(C2CCN(CCOc3ccccc3C(=O)O)CC2)c2cccnc21 [Example 6] | 190 | > 50 |
| O=C(O)c1ccccc1OCCN1CCC(c2cn(Cc3ccco3)c3ncccc23)CC1 [Example 8, 2-{2-[4-(1-furan-2-ylmethyl-1H-pyrrolo[2,3-b]pyridin-3-yl)-piperidin-1-yl]-ethoxy}-benzoic acid] | 405 | > 50 |
| O=C(O)c1cccc(CN2CCC(c3cn(Cc4ccco4)c4ncccc34)CC2)c1 [Example 9, 3-[4-(1-furan-2-ylmethyl-1H-pyrrolo[2,3-b]pyridin-3-yl)piperidin-1-ylmethyl]-benzoic acid] | 150 | > 50 |
| O=C(O)c1ccccc1OCCN1CCC(c2cn(Cc3cccs3)c3ncccc23)CC1 [Example 11, 2-{2-[4-(1-thiophen-2-ylmethyl-1H-pyrrolo[2,3-b]pyridin-3-yl)-piperidin-1-yl]-ethoxy}benzoic acid] | 505 | – |
| O=C(O)c1ccccc1OCCN1CCC(c2cn(Cc3ccsc3)c3ncccc23)CC1 [Example 14, 2-{2-[4-(1-thiophen-3-ylmethyl-1H-pyrrolo[2,3-b]pyridin-3-yl)-piperidin-1-yl]-ethoxy}-benzoic acid] | 510 | – |
| O=C(O)c1cccc(CN2CCC(c3cn(Cc4ccc(Cl)s4)c4ncccc34)CC2)c1 [Example 18, 3-{4-[1-(5-chlorothiophen-2-ylmethyl)-1H-pyrrolo[2,3-b]pyridin-3-yl]-piperidin-1-ylmethyl}-benzoic acid] | 315 | – |
| COc1ccc(CN2CCC(c3cn(Cc4ccc(Cl)s4)c4ncccc34)CC2)cc1C(=O)O [Example 19, 5-{4-[1-(5-chlorothiophen-2-ylmethyl)-1H-pyrrolo[2,3-b]pyridin-3-yl]-piperidin-1-ylmethyl}2-methoxybenzoic acid] | 500 | > 50 |
| COCCn1cc(C2CCN(Cc3c(OC)ccc(C(=O)O)c3OC)CC2)c2cccnc21 [Example 22, 2,4-dimethoxy-3-{4-[1-(2-methoxyethyl)-1H-pyrrolo[2,3-b]pyridin-3-yl]-piperidin-1-ylmethyl}-benzoic acid] | 235 | – |
| COCCn1cc(C2CCN(CCOc3cccc(OC)c3C(=O)O)CC2)c2cccnc21 [Example 23, 2-methoxy-6-(2-{4-[1-(2-methoxyethyl)-1H-pyrrolo[2,3-b]pyridin-3-yl]-piperidin-1-yl}-ethoxy)benzoic acid] | 275 | – |
| CCCCn1cc(C2CCN(Cc3ccc(OC)c(C(=O)O)c3)CC2)c2cccnc21 [Example 24, 5-[4-(1-butyl-1H-pyrrolo[2,3-b]pyridin-3-yl)piperidin-1-ylmethyl]-2-methoxybenzoic acid] | 475 | > 50 |
| CCCCn1cc(C2CCN(Cc3cccc(C(=O)O)c3)CC2)c2cccnc21 [Example 26, 3-[4-(1-butyl-1H-pyrrolo[2,3-b]pyridin-3-yl)piperidin-1-ylmethyl]-benzoic acid] | 275 | – |
| O=C(O)c1cccc(CN2CCC(c3cn(CC4CC4)c4ncccc34)CC2)c1 [Example 28, 3-[4-(1-cyclopropylmethyl-1H-pyrrolo[2,3-b]pyridin-3-yl)-piperidin-1-ylmethyl]-benzoic acid] | 520 | – |
| CCOCCn1cc(C2CCN(CCOc3c(OC)cccc3C(=O)O)CC2)c2cccnc21 [Example 37, 2-(2-{4-[1-(2-ethoxyethyl)-1H-pyrrolo[2,3-b]pyridin-3-yl]-piperidin-1-yl}-ethoxy)-3-methoxybenzoic acid] | 155 | – |
| COc1cccc(C(=O)O)c1OCCN1CCC(c2cn(Cc3ccc(Cl)s3)c3ncccc23)CC1 [Example 54, 2-(2-{4-[1-(5-chlorothiophen-2-ylmethyl)-1H-pyrrolo[2,3-b]pyridin-3-yl]-piperidin-1-yl}-ethoxy)-3-methoxybenzoic acid] | 695 | – |
| CCCCn1cc(C2CCN(CCOc3cc(Cl)ccc3C(=O)O)CC2)c2cccnc21 [Example 63, 2-{2-[4-(1-butyl-1H-pyrrolo[2,3-b]pyridin-3-yl)-piperidin-1-yl]-ethoxy}-4-chlorobenzoic acid] | 110 | – |
| CCCCn1cc(C2CCN(Cc3ccc(F)c(C(=O)O)c3)CC2)c2cccnc21 [Example 64, 5-[4-(1-butyl-1H-pyrrolo[2,3-b]pyridin-3-yl)-piperidin-1-ylmethyl]-2-fluorobenzoic acid] | 380 | – |

More lines, main results first:

| IC50 (histamine H1 receptor) [nM] | Structure (SMILES) | inhibition in vivo at 3 mg/kg [1] [%] |
| --- | --- | --- |
| 560 | O=C(O)c1cccc(CN2CCC(c3cn(Cc4ccoc4)c4ncccc34)CC2)c1 [Example 2, 3-[4-(1-furan-3-ylmethyl-1H-pyrrolo[2,3-b]pyridin-3-yl)piperidin-1-ylmethyl]benzoic acid] | > 50 |
| 225 | O=C(O)c1ccccc1OCCN1CCC(c2cn(Cc3ccoc3)c3ncccc23)CC1 [Example 3, 2-{2-[4-(1-furan-3-ylmethyl-1H-pyrrolo[2,3-b]pyridin-3-yl)piperidine-1-yl]ethoxy}benzoic acid] | > 50 |
| 205 | COc1ccc(CN2CCC(c3cn(Cc4ccoc4)c4ncccc34)CC2)cc1C(=O)O [Example 7, 5-[4-(1-furan-3-ylmethyl-1H-pyrrolo[2,3-b]pyridin-3-yl)-piperidin-1-ylmethyl]-2-methoxybenzoic acid] | > 50 |
| 335 | COc1ccc(CN2CCC(c3cn(Cc4ccco4)c4ncccc34)CC2)cc1C(=O)O [Example 10, 5-[4-(1-furan-2-ylmethyl-1H-pyrrolo[2,3-b]pyridin-3-yl)piperidin-1-ylmethyl]-2methoxy-benzoic acid] | > 50 |
| 265 | O=C(O)c1ccccc1OCCN1CCC(c2cn(Cc3ccc(Cl)s3)c3ncccc23)CC1 [Example 17, 2-(2-{4-[1-(5-chlorothiophen-2-ylmethyl)-1H-pyrrolo[2,3-b]pyridin-3-yl]-piperidin-1-yl}-ethoxy)-benzoic acid] | – |
| 120 | COc1ccc(C(=O)O)c(OCCN2CCC(c3cn(Cc4ccoc4)c4ncccc34)CC2)c1 [Example 43, 2-{2-[4-(1-furan-3-ylmethyl-1H-pyrrolo[2,3-b]pyridin-3-yl)piperidin-1-yl]-ethoxy}-4-methoxybenzoic acid] | – |
| 255 | O=C(O)c1cc(CN2CCC(c3cn(Cc4ccoc4)c4ncccc34)CC2)ccc1F [Example 45, 2-fluoro-5-[4-(1-furan-3-ylmethyl-1H-pyrrolo[2,3-b]pyridin-3-yl)-piperidin-1-ylmethyl]-benzoic acid] | – |
| 48 | COc1ccc(C(=O)O)c(OCCN2CCC(c3cn(Cc4ccco4)c4ncccc34)CC2)c1 [Example 50, 2-{2-[4-(1-furan-2-ylmethyl-1H-pyrrolo[2,3-b]pyridin-3-yl)-piperidin-1-yl]-ethoxy}-4-methoxybenzoic acid] | – |
| 111 | CCOCCn1cc(C2CCN(CCOc3cc(Cl)ccc3C(=O)O)CC2)c2ccncc21 [Example 73, 4-chloro-2-(2-{4-[1-(2-ethoxyethyl)-1H-pyrrolo[2,3-c]pyridin-3-yl]-piperidin-1-yl}-ethoxy)-benzoic acid] | – |
| 675 | COc1ccc(C(=O)O)c(OCCN2CCC(c3cn(Cc4ccoc4)c4cnccc34)CC2)c1 [Example 76, 2-{2-[4-(1-furan-3-ylmethyl-1H-pyrrolo[2,3-c]pyridin-3-yl)-piperidin-1-yl]-ethoxy}-4-methoxybenzoic acid] | – |
| 220 | CCCCn1cc(C2CCN(CCOc3ccccc3C(=O)O)CC2)c2ccncc21 [Example 81, 2-{2-[4-(1-butyl-1H-pyrrolo[2,3-c]pyridin-3-yl)-piperidin-1-yl]-ethoxy}-benzoic acid] | – |
| 74 | CCCCn1cc(C2CCN(CCOc3cc(Cl)ccc3C(=O)O)CC2)c2ccncc21 [Example 84, 2-{2-[4-(1-butyl-1H-pyrrolo[2,3-c]pyridin-3-yl)piperidin-1-yl]-ethoxy}-4-chlorobenzoic acid] | – |
| 105 | O=C(O)c1ccc(Cl)cc1OCCN1CCC(c2cn(Cc3ccc(Cl)s3)c3cnccc23)CC1 [Example 92, 4-chloro-2-(2-{4-[1-(5-chlorothiophen-2-ylmethyl)-1H-pyrrolo[2,3-c]pyridin-3-yl]-piperidin-1-yl}-ethoxy)-benzoic acid] | – |
| 805 | COc1ccc(CN2CCC(c3cn(Cc4ccco4)c4cnccc34)CC2)cc1C(=O)O [Example 96, 5-[4-(1-furan-2-ylmethyl-1H-pyrrolo[2,3-c]pyridin-3-yl)-piperidin-1-ylmethyl]-2-methoxybenzoic acid] | – |
